According to ChEMBL document CHEMBL5356980, “Linker optimization and activity validation of a cell surface vimentin targeted homo-dimeric peptoid antagonist for lung cancer stem cells” (Bioorg Med Chem, 2024):
pIC50, pKd: −log10 of the molar value. The source made the active and inactive calls. No cut-off for these calls is given here.

Assays:
NCI-H1299 [1] = experiment: Antiproliferative activity against human NCI-H1299 cells assessed as reduction in cell viability incubated for 4 days by MTS assay; type: functional, cell-based; details: dose 1000-100000 nM, time 4.0 day
NCI-H460 [2] = experiment: Inhibition of colony formation in human NCI-H460 cells at 20 uM incubated for 8 days by crystal violet staining based analysis; type: functional, cell-based; details: time 8.0 day
Vimentin = Vimentin (Homo sapiens, UniProt P08670); experiment: Binding affinity to his-tagged recombinant Vimentin (unknown origin) assessed as dissociation constant by ELISA analysis
Chain of Vimentin (P08670 whole entry): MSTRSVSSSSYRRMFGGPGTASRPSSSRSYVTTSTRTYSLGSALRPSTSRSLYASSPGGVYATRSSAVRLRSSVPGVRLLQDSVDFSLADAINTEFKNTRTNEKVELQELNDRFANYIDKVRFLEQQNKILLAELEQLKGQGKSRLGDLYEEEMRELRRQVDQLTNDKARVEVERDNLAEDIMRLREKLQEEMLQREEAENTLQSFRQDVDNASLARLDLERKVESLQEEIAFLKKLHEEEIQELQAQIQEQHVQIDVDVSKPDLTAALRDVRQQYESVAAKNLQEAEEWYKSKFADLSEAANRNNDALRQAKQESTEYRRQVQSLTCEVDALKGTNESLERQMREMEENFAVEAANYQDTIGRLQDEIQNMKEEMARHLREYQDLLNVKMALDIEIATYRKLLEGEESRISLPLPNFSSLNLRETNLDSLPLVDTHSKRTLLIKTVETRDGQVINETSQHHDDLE

NCI-H460 [3] = experiment: Inhibition of colony formation in human NCI-H460 cells at 300 nM incubated for 8 days by crystal violet staining based analysis; type: functional, cell-based; details: time 8.0 day
NCI-H1299 [4] = experiment: Antiproliferative activity against human NCI-H1299 cells expressing vimentin assessed as inhibition of cell growth incubated for 3 days by MTS assay; type: functional, cell-based; details: NCI-H1299, 72 h
NCI-H460 [5] = experiment: Induction of apoptosis in human NCI-H460 cells assessed as viable cells at 10 uM incubated for 12 hrs by annexin V/PI staining based flow cytometry analysis (reference value: 90.9%); type: functional; details: read-out: Activity
NCI-H1299 [6] = experiment: Inhibition of colony formation in human NCI-H1299 cells incubated for 8 days by crystal violet staining based analysis; type: functional, cell-based
NCI-H1299 [7] = experiment: Inhibition of cell migration of human NCI-H1299 cells incubated for 24 hrs by crystal violet staining based microscopic analysis; type: functional; details: dose <= 10000.0 nM
NCI-H1299 [8] = experiment: Induction of apoptosis in human NCI-H1299 cells assessed as necrotic cells at 10 uM incubated for 12 hrs by annexin V/PI staining based flow cytometry analysis (reference value: 2.62%); type: functional
NCI-H460 [9] = experiment: Induction of apoptosis in human NCI-H460 cells assessed as necrotic cells at 10 uM incubated for 12 hrs by annexin V/PI staining based flow cytometry analysis (reference value: 0.20%); type: functional
NCI-H1299 [10] = experiment: Antiproliferative activity against human NCI-H1299 cells assessed as inhibition of cell growth measured for 18 hrs by MTS assay; type: functional, cell-based
NCI-H460 [11] = experiment: Induction of apoptosis in human NCI-H460 cells assessed as late apoptotic cells at 10 uM incubated for 12 hrs by annexin V/PI staining based flow cytometry analysis (reference value: 6.19%); type: functional
NCI-H2122 = experiment: Antiproliferative activity against human NCI-H2122 cells expressing vimentin assessed as inhibition of cell growth incubated for 3 days by MTS assay; type: functional, cell-based; details: NCI-H2122, 72 h
NCI-H1299 [12] = experiment: Induction of apoptosis in human NCI-H1299 cells assessed as late apoptotic cells at 20 uM incubated for 12 hrs by annexin V/PI staining based flow cytometry analysis (reference value: 2.05%); type: functional
NCI-H1299 [13] = experiment: Induction of apoptosis in human NCI-H1299 cells assessed as necrotic cells at 20 uM incubated for 12 hrs by annexin V/PI staining based flow cytometry analysis (reference value: 2.62%); type: functional
NCI-H1299 [14] = experiment: Antimigratory activity against human NCI-H1299 assessed as inhibition of cell migration incubated for 24 hrs by crystal violet staining based microscopic analysis; type: functional; details: NCI-H1299, 24 h
NCI-H460 [15] = experiment: Induction of apoptosis in human NCI-H460 cells assessed as early apoptotic cells at 10 uM incubated for 12 hrs by annexin V/PI staining based flow cytometry analysis (reference value: 0.00%); type: functional
NCI-H1299 [16] = experiment: Inhibition of cell migration of human NCI-H1299 cells assessed as reduction in wound closure incubated for 24 hrs by crystal violet staining based microscopic analysis; type: functional; details: NCI-H1299, 24 h
NCI-H460 [17] = experiment: Induction of apoptosis in human NCI-H460 cells assessed as early apoptotic cells at 20 uM incubated for 12 hrs by annexin V/PI staining based flow cytometry analysis (reference value: 0.00%); type: functional
NCI-H2009 = experiment: Antiproliferative activity against human NCI-H2009 cells expressing vimentin assessed as inhibition of cell growth incubated for 3 days by MTS assay; type: functional, cell-based; details: NCI-H2009, 72 h
NCI-H1299 [18] = experiment: Induction of apoptosis in human NCI-H1299 cells assessed as late apoptotic cells at 10 uM incubated for 12 hrs by annexin V/PI staining based flow cytometry analysis (reference value: 2.05%); type: functional
NCI-H358 = experiment: Antiproliferative activity against human NCI-H358 cells expressing vimentin assessed as inhibition of cell growth incubated for 3 days by MTS assay; type: functional, cell-based; details: NCI-H358, 72 h
HBEC3-KT = experiment: Antiproliferative activity against human HBEC3-KT cells assessed as inhibition of cell growth incubated for 3 days by MTS assay; type: toxicity, cell-based; details: 72 h, time 3 day
NCI-H1299 [19] = experiment: Induction of apoptosis in human NCI-H1299 cells assessed as early apoptotic cells at 20 uM incubated for 12 hrs by annexin V/PI staining based flow cytometry analysis (reference value: 0.73%); type: functional
NCI-H460 [20] = experiment: Induction of apoptosis in human NCI-H460 cells assessed as viable cells at 20 uM incubated for 12 hrs by annexin V/PI staining based flow cytometry analysis (reference value: 90.9%); type: functional; details: read-out: Activity
NCI-H1299 [21] = experiment: Induction of apoptosis in human NCI-H1299 cells assessed as early apoptotic cells at 10 uM incubated for 12 hrs by annexin V/PI staining based flow cytometry analysis (reference value: 0.73%); type: functional
NCI-H460 [22] = experiment: Induction of apoptosis in human NCI-H460 cells assessed as late apoptotic cells at 20 uM incubated for 12 hrs by annexin V/PI staining based flow cytometry analysis (reference value: 6.19%); type: functional
NCI-H460 [23] = experiment: Induction of apoptosis in human NCI-H460 cells assessed as necrotic cells at 20 uM incubated for 12 hrs by annexin V/PI staining based flow cytometry analysis (reference value: 0.20%); type: functional
NCI-H460 [24] = experiment: Inhibition of cell migration of human NCI-H460 cells assessed as reduction in wound distance at 10 uM incubated for 24 hrs by crystal violet staining based microscopic analysis; type: functional
NCI-H460 [25] = experiment: Antiproliferative activity against human NCI-H460 cells expressing vimentin assessed as inhibition of cell growth incubated for 3 days by MTS assay; type: functional, cell-based; details: NCI-H460, 72 h
NCI-H460 [26] = experiment: Inhibition of cell migration of human NCI-H460 cells incubated for 24 hrs by crystal violet staining based microscopic analysis; type: functional; details: dose <= 10000.0 nM
NCI-H1299 [27] = experiment: Induction of apoptosis in human NCI-H1299 cells assessed as viable cells at 10 uM incubated for 12 hrs by annexin V/PI staining based flow cytometry analysis (reference value: 94.6%); type: functional; details: read-out: Activity
NCI-H1299 [28] = experiment: Antiproliferative activity against human NCI-H1299 cells assessed as inhibition of cell growth measured for 2 hrs by MTS assay; type: functional, cell-based; details: NCI-H1299, 2 h
NCI-H1299 [29] = experiment: Inhibition of cell migration of human NCI-H1299 cells assessed as reduction in wound distance at 10 uM incubated for 24 hrs by crystal violet staining based microscopic analysis; type: functional
NCI-H1299 [30] = experiment: Induction of apoptosis in human NCI-H1299 cells assessed as viable cells at 20 uM incubated for 12 hrs by annexin V/PI staining based flow cytometry analysis (reference value: 94.6%); type: functional; details: read-out: Activity
NCI-H460 [31] = experiment: Inhibition of cell migration of human NCI-H460 cells assessed as reduction in wound closure incubated for 24 hrs by crystal violet staining based microscopic analysis; type: functional; details: NCI-H460, 24 h
NCI-H460 [32] = experiment: Inhibition of colony formation in human NCI-H460 cells incubated for 8 days by crystal violet staining based analysis; type: functional, cell-based

COCCN(CC(=O)N[C@H](CCCCN)C(=O)N[C@H](CCSC)C(=O)NCCCCC(NC(=O)[C@@H](CCSC)NC(=O)[C@@H](CCCCN)NC(=O)CN(CCOC)C(=O)CN(Cc1ccc2c(c1)OCO2)C(=O)CN(CC(C)C)C(=O)CN(CCCCN)C(=O)CN(CCCCN)C(=O)CN(CC(C)C)C(=O)CNc1ccc(C(=O)c2ccccc2)cc1)C(N)=O)C(=O)CN(Cc1ccc2c(c1)OCO2)C(=O)CN(CC(C)C)C(=O)CN(CCCCN)C(=O)CN(CCCCN)C(=O)CN(CC(C)C)C(=O)CNc1ccc(C(=O)c2ccccc2)cc1 (stereo partly specified)
Activity (NCI-H1299 [1]): Dose-Dependent Effect
inhibition (NCI-H460 [2]): Active
pKd (Vimentin): 6.00

COCCN(CC(=O)N[C@@H](CCCCN)C(=O)N[C@H](C)C(=O)NCC(=O)NCCCCC(NC(=O)CNC(=O)[C@@H](C)NC(=O)[C@H](CCCCN)NC(=O)CN(CCOC)C(=O)CN(Cc1ccc2c(c1)OCO2)C(=O)CN(CC(C)C)C(=O)CN(CCCCN)C(=O)CN(CCCCN)C(=O)CN(CC(C)C)C(=O)CNc1cccc(C(=O)c2ccccc2)c1)C(N)=O)C(=O)CN(Cc1ccc2c(c1)OCO2)C(=O)CN(CC(C)C)C(=O)CN(CCCCN)C(=O)CN(CCCCN)C(=O)CN(CC(C)C)C(=O)CNc1ccc(C(=O)c2ccccc2)cc1 (stereo partly specified)
inhibition (NCI-H460 [3]): Active
pIC50 (NCI-H1299 [4]): 5.17
viability at 10 µM (NCI-H460 [5]): 62.2%
pIC50 (NCI-H1299 [6]; NCI-H1299, 192 h): 6.10
inhibition (NCI-H1299 [6]; time 8.0 day): Dose-Dependent Effect
inhibition (NCI-H1299 [7]): Dose-Dependent Effect
Activity (NCI-H1299 [8]): 0.98%
Activity (NCI-H460 [9]): 1.3%
Activity (NCI-H1299 [10]): inactive
Activity (NCI-H460 [11]): 15.3%
pIC50 (NCI-H2122): 4.52
Activity (NCI-H1299 [12]): 26%
Activity (NCI-H1299 [13]): 1.37%
pIC50 (NCI-H1299 [14]): ~5.70
Activity (NCI-H460 [15]): 1.15%
pIC50 (NCI-H1299 [16]): 5.70
Activity (NCI-H460 [17]): 1.09%
pIC50 (NCI-H2009): 4.84
pKd (Vimentin): ~7.00
Activity (NCI-H1299 [18]): 8.1%
pIC50 (NCI-H358): 4.89
Activity (HBEC3-KT): Non-Toxic
Activity (NCI-H1299 [19]): 0.46%
viability at 20 µM (NCI-H460 [20]): 0.06%
Activity (NCI-H1299 [21]): 0.44%
Activity (NCI-H460 [22]): 45.5%
Activity (NCI-H460 [23]): 12.8%
inhibition (NCI-H460 [24]): Active
pIC50 (NCI-H460 [25]): 5.07
inhibition (NCI-H460 [26]): Dose-Dependent Effect
viability at 10 µM (NCI-H1299 [27]): 50.5%
pIC50 (NCI-H1299 [28]): ~4.68
inhibition (NCI-H1299 [29]): Active
viability at 20 µM (NCI-H1299 [30]): 21.3%
pIC50 (NCI-H460 [31]): 5.40
pIC50 (NCI-H460 [32]; NCI-H460, 192 h): 6.40
inhibition (NCI-H460 [32]; time 8.0 day): Dose-Dependent Effect

COCCN(CC(=O)N[C@H](CCCCN)C(=O)N[C@H](CCSC)C(=O)NCCOCCOCC(=O)NCCCCC(NC(=O)COCCOCCNC(=O)[C@@H](CCSC)NC(=O)[C@@H](CCCCN)NC(=O)CN(CCOC)C(=O)CN(Cc1ccc2c(c1)OCO2)C(=O)CN(CC(C)C)C(=O)CN(CCCCN)C(=O)CN(CCCCN)C(=O)CN(CC(C)C)C(=O)CNc1ccc(C(=O)c2ccccc2)cc1)C(N)=O)C(=O)CN(Cc1ccc2c(c1)OCO2)C(=O)CN(CC(C)C)C(=O)CN(CCCCN)C(=O)CN(CCCCN)C(=O)CN(CC(C)C)C(=O)CNc1ccc(C(=O)c2ccccc2)cc1 (stereo partly specified)
Activity (NCI-H1299 [1]): Dose-Dependent Effect
